Target: human mGluR2 (Homo sapiens (Human), UniProt Q14416)
Assay: MGluR2 cAMP assay
Type: cell-based
Conditions: HEK293 cells clonally expressing human mGluR2, 1 μM forskolin, 1 μM LY-341495
Description: Clonally expressed human mGluR2 in HEK293 background was glutamate starved overnight in media without glutamine (GIBCO MEM 12360), containing 10% FBS, 1% penicillin streptomycin.
On the day of the assay, media was removed, cells washed with PBS, cells harvested and pelleted by centrifugation. Cell pellets were resuspended in stimulation buffer without forskolin and counted. A solution of 1.25×10^6 cells/ml was prepared and dispensed to plates using a Combi liquid handler (Thermo). A standard curve was created using a top concentration of cAMP of 1 μM in the stimulation buffer, 1:3 dilutions over 14 points in the absence of cells. Plates were read by time-resolved fluorescence at […] and a ratio was calculated via in house software, (665 nM/618 nM)*10^4. In house software converted the fluorescence value ratios to units of cAMP concentration, which is then used to calculate % inhibition for each test compound.
Compounds were added to white, standard volume 384 non-binding surface plates (Corning 3574). Cells were resuspended in stimulation buffer consisting of Hanks Balanced Salt Solution (14175-095) pH 7.0, 20 mM HEPES, 2.0 mM CaCl2, 5.0 mM MgCl2, and 1 mM IBMX (Sigma 15879), 1 μM forskolin, and 1 μM LY-341495, for 30 minutes. Buffer without forskolin was used as a negative control. Solutions of D2 and cryptate detection reagents from the CISBIO dynamic cAMP kit (62AM4PEJ) were diluted 1:40 in lysis buffer. Lysis buffer consisted of 50 mM Phosphate Buffer pH 7.0, 800 mM Potassium Fluoride, 0.2% BSA, and 1.0% Triton. Assay reaction was terminated by addition of detection reagents in lysis buffer. One hour later, plates were read on a PE Viewlux. Data was extracted, and concentration response curves generated by fitting the data to a standard 4 parameter logistic equation from which EC50 values were determined See table 1: A: <10 nM; B: 10-100 nM; C: 100-1000 nM; D: 1000-10000 nM.

Sequence of human mGluR2 (Q14416 19-872): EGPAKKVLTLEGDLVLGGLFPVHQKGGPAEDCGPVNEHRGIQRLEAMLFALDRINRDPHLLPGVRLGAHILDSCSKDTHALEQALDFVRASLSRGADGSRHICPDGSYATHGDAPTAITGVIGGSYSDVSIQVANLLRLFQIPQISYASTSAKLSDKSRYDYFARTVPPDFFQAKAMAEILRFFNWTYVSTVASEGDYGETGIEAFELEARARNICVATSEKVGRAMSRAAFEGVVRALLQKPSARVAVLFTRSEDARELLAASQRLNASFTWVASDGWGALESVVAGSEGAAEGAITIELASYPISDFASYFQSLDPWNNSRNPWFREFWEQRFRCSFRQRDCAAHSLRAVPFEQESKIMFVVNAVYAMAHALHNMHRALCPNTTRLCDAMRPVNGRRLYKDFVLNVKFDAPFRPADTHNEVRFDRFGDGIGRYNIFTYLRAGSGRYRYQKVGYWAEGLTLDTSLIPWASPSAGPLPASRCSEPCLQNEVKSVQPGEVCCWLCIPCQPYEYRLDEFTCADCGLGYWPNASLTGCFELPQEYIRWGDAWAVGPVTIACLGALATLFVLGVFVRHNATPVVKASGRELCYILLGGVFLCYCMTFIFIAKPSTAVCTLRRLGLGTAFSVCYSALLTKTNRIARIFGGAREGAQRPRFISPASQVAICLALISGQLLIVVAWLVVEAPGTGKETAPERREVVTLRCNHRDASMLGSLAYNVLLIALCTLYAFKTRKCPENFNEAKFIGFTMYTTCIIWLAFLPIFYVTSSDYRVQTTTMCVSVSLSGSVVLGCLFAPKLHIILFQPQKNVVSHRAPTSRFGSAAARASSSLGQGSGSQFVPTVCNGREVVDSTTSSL

Fc1ccc([C@@H]2C[C@H]2CNc2cnn3c(CC4CC4)nnc3c2Cl)cc1 (racemic) [Example 9, Trans-8-chloro-3-(cyclopropylmethyl)-N-((2-(4-fluorophenyl)cyclopropyl)methyl)-[1,2,4]triazolo[4,3-b]pyridazin-7-amine]
EC50: 76 nM

COc1ccccc1[C@@H]1C[C@H]1CNc1cnn2c(CC(F)(F)F)nnc2c1C(F)(F)F (relative stereo) [Example 85, Trans-N-((2-(2-methoxyphenyl)cyclopropyl)methyl)-3-(2,2,2-trifluoroethyl)-8-(trifluoromethyl)-[1,2,4]triazolo[4,3-b]pyridazin-7-amine]
EC50: 10 nM

Clc1c(N2CCC(c3ccccc3)CC2)ncn2c(CC3CC3)nnc12 [Example 1, 8-Chloro-3-(cyclopropylmethyl)-7-(4-phenylpiperidin-1-yl)-[1,2,4]triazolo[4,3-c]pyrimidine]
EC50: 8 nM

Cc1c(N2CCC(c3ccccc3)CC2)ncn2c(CC3CC3)nnc12 [Example 2, 3-(Cyclopropylmethyl)-8-methyl-7-(4-phenylpiperidin-1-yl)-[1,2,4]triazolo[4,3-c]pyrimidine]
EC50: 62 nM

COc1c(N2CCC(c3ccccc3)CC2)ncn2c(CC3CC3)nnc12 [Example 3, 3-(Cyclopropylmethyl)-8-methoxy-7-(4-phenylpiperidin-1-yl)-[1,2,4]triazolo[4,3-c]pyrimidine]
EC50: 540 nM

FC(F)(F)c1c(N2CCC(c3ccccc3)CC2)ncn2c(CC3CC3)nnc12 [Example 4, 3-(Cyclopropylmethyl)-7-(4-phenylpiperidin-1-yl)-8-(trifluoromethyl)-[1,2,4]triazolo[4,3-c]pyrimidine]
EC50: 69 nM

Clc1c(N2CCC(c3ccccc3)CC2)cnn2c(CC3CC3)nnc12 [Example 5, 8-Chloro-3-(cyclopropylmethyl)-7-(4-phenylpiperidin-1-yl)-[1,2,4]triazolo[4,3-b]pyridazine]
EC50: 19 nM

Cc1c(N2CCC(c3ccccc3)CC2)cnn2c(CC3CC3)nnc12 [Example 6, 3-(Cyclopropylmethyl)-8-methyl-7-(4-phenylpiperidin-1-yl)-[1,2,4]triazolo[4,3-b]pyridazine]
EC50: 182 nM

FC(F)(F)c1c(N2CCC(c3ccccc3)CC2)cnn2c(CC3CC3)nnc12 [Example 7, 3-(Cyclopropylmethyl)-7-(4-phenylpiperidin-1-yl)-8-(trifluoromethyl)-[1,2,4]triazolo[4,3-b]pyridazine]
EC50: 3 nM

Clc1c(N2CCC(Cc3ccccc3)CC2)ncn2c(CC3CC3)nnc12 [Example 8, 7-(4-Benzylpiperidin-1-yl)-8-chloro-3-(cyclopropylmethyl)-[1,2,4]triazolo[4,3-c]pyrimidine]
EC50: 61 nM

Fc1ccc([C@@H]2C[C@H]2CNc2cnn3c(CC4CC4)nnc3c2Cl)cc1 [Example 10, 8-Chloro-3-(cyclopropylmethyl)-N-(((1R,2R)-2-(4-fluorophenyl)cyclopropyl)methyl)-[1,2,4]triazolo[4,3-b]pyridazin-7-amine]
EC50: 158 nM

Fc1ccc([C@H]2C[C@@H]2CNc2cnn3c(CC4CC4)nnc3c2Cl)cc1 [Example 11, 8-Chloro-3-(cyclopropylmethyl)-N-(((1S,2S)-2-(4-fluorophenyl)cyclopropyl)methyl)-[1,2,4]triazolo[4,3-b]pyridazin-7-amine]
EC50: 60 nM

COc1c(N2CCC(c3ccc(F)cc3)CC2)ncn2c(CC3CC3)nnc12 [Example 12, 3-(Cyclopropylmethyl)-7-(4-(4-fluorophenyl)piperidin-1-yl)-8-methoxy-[1,2,4]triazolo[4,3-c]pyrimidine]
EC50: 519 nM

COc1c(N2CCC(c3ccc(F)cc3)CC2)ncn2c(CC(C)(C)C)nnc12 [Example 13, 7-(4-(4-Fluorophenyl)piperidin-1-yl)-8-methoxy-3-neopentyl-[1,2,4]triazolo[4,3-c]pyrimidine]
EC50: 286 nM

COc1c(N2CCC(O)(c3ccc(F)cc3)CC2)ncn2c(CC3CC3)nnc12 [Example 14, 1-(3-(Cyclopropylmethyl)-8-methoxy-[1,2,4]triazolo[4,3-c]pyrimidin-7-yl)-4-(4-fluorophenyl)piperidin-4-ol]
EC50: 782 nM

Clc1c(N2CCN(c3ncccn3)CC2)cnn2c(CC3CC3)nnc12 [Example 15, 8-Chloro-3-(cyclopropylmethyl)-7-(4-(pyrimidin-2-yl)piperazin-1-yl)-[1,2,4]triazolo[4,3-b]pyridazine]
EC50: 280 nM

CC(C)(C)Cc1nnc2c(Cl)c(N3CCN(c4ncccn4)CC3)cnn12 [Example 16, 8-Chloro-3-neopentyl-7-(4-(pyrimidin-2-yl)piperazin-1-yl)-[1,2,4]triazolo[4,3-b]pyridazine]
EC50: 437 nM

Fc1ccc(C2CCN(c3cnn4c(CC5CC5)nnc4c3Cl)CC2)cc1 [Example 17, 8-Chloro-3-(cyclopropylmethyl)-7-(4-(4-fluorophenyl)piperidin-1-yl)-[1,2,4]triazolo[4,3-b]pyridazine]
EC50: 46 nM

CC(C)(C)Cc1nnc2c(Cl)c(N3CCC(c4ccc(F)cc4)CC3)cnn12 [Example 18, 8-Chloro-7-(4-(4-fluorophenyl)piperidin-1-yl)-3-neopentyl-[1,2,4]triazolo[4,3-b]pyridazine]
EC50: 145 nM

Fc1ccc(N2CCN(c3cnn4c(CC5CC5)nnc4c3Cl)CC2)cc1 [Example 19, 8-Chloro-3-(cyclopropylmethyl)-7-(4-(4-fluorophenyl)piperazin-1-yl)-[1,2,4]triazolo[4,3-b]pyridazine]
EC50: 614 nM

Clc1c(N2CCC3(C=Cc4ccccc43)CC2)cnn2c(CC3CC3)nnc12 [Example 20, 8-Chloro-3-(cyclopropylmethyl)-7-(spiro[indene-1,4′-piperidin]-1′-yl)-[1,2,4]triazolo[4,3-b]pyridazine]
EC50: 145 nM

Clc1c(NCC2(COc3ccccc3)CC2)cnn2c(CC3CC3)nnc12 [Example 21, 8-Chloro-3-(cyclopropylmethyl)-N-((1-(phenoxymethyl)cyclopropyl)methyl)-[1,2,4]triazolo[4,3-b]pyridazin-7-amine]
EC50: 2310 nM

COc1cccc(F)c1C1CCN(c2cnn3c(CC4CC4)nnc3c2Cl)CC1 [Example 22, 8-Chloro-3-(cyclopropylmethyl)-7-(4-(2-fluoro-6-methoxyphenyl)piperidin-1-yl)-[1,2,4]triazolo[4,3-b]pyridazine]
EC50: 3 nM

Fc1ccccc1C1CCN(c2cnn3c(CC4CC4)nnc3c2Cl)CC1 [Example 23, 8-Chloro-3-(cyclopropylmethyl)-7-(4-(2-fluorophenyl)piperidin-1-yl)-[1,2,4]triazolo[4,3-b]pyridazine]
EC50: 13 nM

Fc1cccc(C2CCN(c3cnn4c(CC5CC5)nnc4c3Cl)CC2)c1 [Example 24, 8-Chloro-3-(cyclopropylmethyl)-7-(4-(3-fluorophenyl)piperidin-1-yl)-[1,2,4]triazolo[4,3-b]pyridazine]
EC50: 25 nM

Fc1ccccc1C1CCN(c2cnn3c(CC(F)(F)F)nnc3c2Cl)CC1 [Example 25, 8-Chloro-7-(4-(2-fluorophenyl)piperidin-1-yl)-3-(2,2,2-trifluoroethyl)-[1,2,4]triazolo[4,3-b]pyridazine]
EC50: 20 nM

COc1cccc(F)c1C1CCN(c2cnn3c(CC(F)(F)F)nnc3c2Cl)CC1 [Example 26, 8-Chloro-7-(4-(2-fluoro-6-methoxyphenyl)piperidin-1-yl)-3-(2,2,2-trifluoroethyl)-[1,2,4]triazolo[4,3-b]pyridazine]
EC50: 2 nM

— patent US9682980B2, “Positive allosteric modulators of mGluR2” (BRISTOL-MYERS SQUIBB COMPANY, priority 2012, dated 2017)
